Test results from patent US12404285B2, “KRAS G12D proteolysis targeting chimeras” (PAQ Therapeutics Inc., priority 2022, dated 2025).

Target: T1, KRAS (G12D)-HiBit in AsPc-1-KRAS (G12D)-HiBit-KI cell (Homo sapiens, UniProt P01116, G12D)
T1 construct: host or cells: AsPc-1-KRAS (G12D)-HiBit-KI cells (knock-in line)
Test: G12D HiBit assay
Format: cell-based
Settings: 24 hours compound treatment, absolute DC50, read-out: Average PHA DC50
Summary of the method: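 Degradation of endogenous HiBiT-tagged KRAS G12D in AsPc-1 knock-in cells read after 24 h compound exposure (0.015-300 nM, 3-fold steps) by Nano-Glo HiBiT lytic luminescence. Signal normalised to DMSO-only cells; absolute DC50 derived by curve fitting.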

T1 sequence (P01116 1-188 isoform P01116-2 G12D): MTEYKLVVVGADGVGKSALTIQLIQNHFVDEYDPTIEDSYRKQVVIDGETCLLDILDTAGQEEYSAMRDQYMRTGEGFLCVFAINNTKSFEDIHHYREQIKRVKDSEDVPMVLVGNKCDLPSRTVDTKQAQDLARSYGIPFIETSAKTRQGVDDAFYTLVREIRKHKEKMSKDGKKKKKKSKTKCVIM

DC50 [nM]	Compound
< 100	C#Cc1c(F)ccc2cccc(-c3ncc4c(N5CC6CCC(C5)N6)nc(OC[C@@]56CCCN5[C@H](COC(=O)N5CCC(CN(C)C7CCN(c8cccc9c8n(C)c(=O)n9C8CCC(=O)NC8=O)CC7)CC5)CC6)nc4c3F)c12 (stereo partly drawn) [Compound 108, [(3S,8S)-8-[[4-(3,8-Diazabicyclo[3.2.1]octan-3-yl)-7-(8-ethynyl-7-fluoro-1-naphthyl)-8-fluoro-pyrido[4,3-d]pyrimidin-2-yl]oxymethyl]-1,2,3,5,6,7-hexahydropyrrolizin-3-yl]methyl4-[[[1-[1-(2,6-dioxo-3-piperidyl)-3-methyl-2-oxo-benzimidazol-4-yl]-4-piperidyl]-methyl-amino]methyl]piperidine-1-carboxylate]
≥ 300	C#Cc1c(F)ccc2cccc(-c3ncc4c(N5CC6CCC(C5)N6)nc(OC[C@@]56CCCN5[C@H](COC(=O)NCCCN(C)C5CCN(c7cccc8c7n(C)c(=O)n8C7CCC(=O)NC7=O)CC5)CC6)nc4c3F)c12 (stereo partly drawn) [Compound 109, [(3S,8S)-8-[[4-(3,8-Diazabicyclo[3.2.1]octan-3-yl)-7-(8-ethynyl-7-fluoro-1-naphthyl)-8-fluoro-pyrido[4,3-d]pyrimidin-2-yl]oxymethyl]-1,2,3,5,6,7-hexahydropyrrolizin-3-yl]methylN-[3-[[1-[1-(2,6-dioxo-3-piperidyl)-3-methyl-2-oxo-benzimidazol-4-yl]-4-piperidyl]-methyl-amino]propyl]carbamate]
≥ 300	C#Cc1c(F)ccc2cccc(-c3ncc4c(N5CC6CCC(C5)N6)nc(OC[C@@]56CCCN5[C@H](COC(=O)NCCCC(=O)N5CCN(c7cccc8c7n(C)c(=O)n8C7CCC(=O)NC7=O)CC5)CC6)nc4c3F)c12 (stereo partly drawn) [Compound 110, ((3S,7aS)-7a-(((4-((1R,5S)-3,8-Diazabicyclo[3.2.1]octan-3-yl)-7-(8-ethynyl-7-fluoronaphthalen-1-yl)-8-fluoropyrido[4,3-d]pyrimidin-2-yl)oxy)methyl)hexahydro-1H-pyrrolizin-3-yl)methyl(4-(4-(1-(2,6-dioxopiperidin-3-yl)-3-methyl-2-oxo-2,3-dihydro-1H-benzo[d]imidazol-4-yl)piperazin-1-yl)-4-oxobutyl)carbamate]
< 100	C#Cc1c(F)ccc2cccc(-c3ncc4c(N5CC6CCC(C5)N6)nc(OC[C@@]56CCCN5[C@H](COC(=O)N5CCC(CN7CCN(c8cccc9c8n(C)c(=O)n9C8CCC(=O)NC8=O)CC7)CC5)CC6)nc4c3F)c12 (stereo partly drawn) [Compound 112, [(3S,8S)-8-[[4-(3,8-Diazabicyclo[3.2.1]octan-3-yl)-7-(8-ethynyl-7-fluoro-1-naphthyl)-8-fluoro-pyrido[4,3-d]pyrimidin-2-yl]oxymethyl]-1,2,3,5,6,7-hexahydropyrrolizin-3-yl]methyl 4-[[4-[1-(2,6-dioxo-3-piperidyl)-3-methyl-2-oxo-benzimidazol-4-yl]piperazin-1-yl]methyl]piperidine-1-carboxylate]
100 to 300	C#Cc1c(F)ccc2cccc(-c3ncc4c(N5CC6CCC(C5)N6)nc(OC[C@@]56CCCN5[C@H](COC(=O)N5CC(CN7CCN(c8cccc9c8n(C)c(=O)n9C8CCC(=O)NC8=O)CC7)C5)CC6)nc4c3F)c12 (stereo partly drawn) [Compound 113, [(3S,8S)-8-[[4-(3,8-Diazabicyclo[3.2.1]octan-3-yl)-7-(8-ethynyl-7-fluoro-1-naphthyl)-8-fluoro-pyrido[4,3-d]pyrimidin-2-yl]oxymethyl]-1,2,3,5,6,7-hexahydropyrrolizin-3-yl]methyl 3-[[4-[1-(2,6-dioxo-3-piperidyl)-3-methyl-2-oxo-benzimidazol-4-yl]piperazin-1-yl]methyl]azetidine-1-carboxylate]

Continued, compound first:

Compound	DC50 [nM]
C#Cc1c(F)ccc2cccc(-c3ncc4c(N5CC6CCC(C5)N6)nc(OC[C@@]56CCCN5[C@H](COC(=O)N5CC(COC7CCN(c8ccc9c(c8)n(C)c(=O)n9C8CCC(=O)NC8=O)CC7)C5)CC6)nc4c3F)c12 (stereo partly drawn) [Compound 104, [(3S,8S)-8-[[4-(3,8-Diazabicyclo[3.2.1]octan-3-yl)-7-(8-ethynyl-7-fluoro-1-naphthyl)-8-fluoro-pyrido[4,3-d]pyrimidin-2-yl]oxymethyl]-1,2,3,5,6,7-hexahydropyrrolizin-3-yl]methyl 3-[[1-[1-(2,6-dioxo-3-piperidyl)-3-methyl-2-oxo-benzimidazol-5-yl]-4-piperidyl]oxymethyl]azetidine-1-carboxylate]	< 100
C#Cc1c(F)ccc2cccc(-c3ncc4c(N5CC6CCC(C5)N6)nc(OC[C@@]56CCCN5[C@H](COC(=O)N5CCC(CCOCC#Cc7ccc8c(c7)n(C)c(=O)n8C7CCC(=O)NC7=O)CC5)CC6)nc4c3F)c12 (stereo partly drawn) [Compound 105, [(3S,8S)-8-[[4-(3,8-diazabicyclo[3.2.1]octan-3-yl)-7-(8-ethynyl-7-fluoro-1-naphthyl)-8-fluoro-pyrido[4,3-d]pyrimidin-2-yl]oxymethyl]-1,2,3,5,6,7-hexahydropyrrolizin-3-yl]methyl 4-[2-[3-[1-(2,6-dioxo-3-piperidyl)-3-methyl-2-oxo-benzimidazol-5-yl]prop-2-ynoxy]ethyl]piperidine-1-carboxylate]	< 100
C#Cc1c(F)ccc2cccc(-c3ncc4c(N5CC6CCC(C5)N6)nc(OC[C@@]56CCCN5[C@H](COC(=O)N5CCC(CN7CCN(c8ccc9c(c8)n(C)c(=O)n9C8CCC(=O)NC8=O)CC7)CC5)CC6)nc4c3F)c12 (some centres unmarked) [Compound 106]	< 100
C#Cc1c(F)ccc2cccc(-c3ncc4c(N5CC6CCC(C5)N6)nc(OC[C@@]56CCCN5[C@H](COC(=O)N5CCC(OCCC#Cc7cccc8c7n(C)c(=O)n8C7CCC(=O)NC7=O)CC5)CC6)nc4c3F)c12 (stereo partly drawn) [Compound 107, [(3S,8S)-8-[[4-(3,8-diazabicyclo[3.2.1]octan-3-yl)-7-(8-ethynyl-7-fluoro-1-naphthyl)-8-fluoro-pyrido[4,3-d]pyrimidin-2-yl]oxymethyl]-1,2,3,5,6,7-hexahydropyrrolizin-3-yl]methyl 4-[4-[1-(2,6-dioxo-3-piperidyl)-3-methyl-2-oxo-benzimidazol-4-yl]but-3-ynoxy]piperidine-1-carboxylate]	< 100
C#Cc1c(F)ccc2cccc(-c3ncc4c(N5CC6CCC(C5)N6)nc(OC[C@@]56CCCN5[C@H](COC(=O)N5CCO[C@@H](CN7CCN(c8cccc9c8n(C)c(=O)n9C8CCC(=O)NC8=O)CC7)C5)CC6)nc4c3F)c12 (stereo partly drawn) [Compound 111, [(3S,8S)-8-[[4-(3,8-Diazabicyclo[3.2.1]octan-3-yl)-7-(8-ethynyl-7-fluoro-1-naphthyl)-8-fluoro-pyrido[4,3-d]pyrimidin-2-yl]oxymethyl]-1,2,3,5,6,7-hexahydropyrrolizin-3-yl]methyl (2S)-2-[[4-[1-(2,6-dioxo-3-piperidyl)-3-methyl-2-oxo-benzimidazol-4-yl]piperazin-1-yl]methyl]morpholine-4-carboxylate-2,6-dione]	< 100
C#Cc1c(F)ccc2cccc(-c3ncc4c(N5CC6CCC(C5)N6)nc(OC[C@@]56CCCN5[C@H](COC(=O)N5CCC(OCCCC#Cc7ccc8c(c7)n(C)c(=O)n8C7CCC(=O)NC7=O)CC5)CC6)nc4c3F)c12 (stereo partly drawn) [Compound 114, [(3S,8S)-8-[[4-(3,8-Diazabicyclo[3.2.1]octan-3-yl)-7-(8-ethynyl-7-fluoro-1-naphthyl)-8-fluoro-pyrido[4,3-d]pyrimidin-2-yl]oxymethyl]-1,2,3,5,6,7-hexahydropyrrolizin-3-yl]methyl 4-[5-[1-(2,6-dioxo-3-piperidyl)-3-methyl-2-oxo-benzimidazol-5-yl]pent-4-ynoxy]piperidine-1-carboxylate]	< 100
C#Cc1c(F)ccc2cccc(-c3ncc4c(N5CC6CCC(C5)N6)nc(OC[C@@]56CCCN5[C@H](COC(=O)N5CCC(OCc7ccc8c(c7)n(C)c(=O)n8C7CCC(=O)NC7=O)CC5)CC6)nc4c3F)c12 (stereo partly drawn) [Compound 116, [(3S,8S)-8-[[4-(3,8-Diazabicyclo[3.2.1]octan-3-yl)-7-(8-ethynyl-7-fluoro-1-naphthyl)-8-fluoro-pyrido[4,3-d]pyrimidin-2-yl]oxymethyl]-1,2,3,5,6,7-hexahydropyrrolizin-3-yl]methyl4-[[1-(2,6-dioxo-3-piperidyl)-3-methyl-2-oxo-benzimidazol-5-yl]methoxy]piperidine-1-carboxylate]	≥ 300
C#Cc1c(F)ccc2cccc(-c3ncc4c(N5CC6CCC(C5)N6)nc(OC[C@@]56CCCN5[C@H](COC(=O)N5CCC(OCCCCc7cccc8c7n(C)c(=O)n8C7CCC(=O)NC7=O)CC5)CC6)nc4c3F)c12 (stereo partly drawn) [Compound 117, [(3S,8S)-8-[[4-(3,8-Diazabicyclo[3.2.1]octan-3-yl)-7-(8-ethynyl-7-fluoro-1-naphthyl)-8-fluoro-pyrido[4,3-d]pyrimidin-2-yl]oxymethyl]-1,2,3,5,6,7-hexahydropyrrolizin-3-yl]methyl4-[4-[1-(2,6-dioxo-3-piperidyl)-3-methyl-2-oxo-benzimidazol-4-yl]butoxy]piperidine-1-carboxylate]	< 100
C#Cc1c(F)ccc2cccc(-c3ncc4c(N5CC6CCC(C5)N6)nc(OC[C@@]56CCCN5[C@H](COC(=O)N5CCC(OCCCCCc7ccc8c(c7)n(C)c(=O)n8C7CCC(=O)NC7=O)CC5)CC6)nc4c3F)c12 (stereo partly drawn) [Compound 120, [(3S,8S)-8-[[4-(3,8-Diazabicyclo[3.2.1]octan-3-yl)-7-(8-ethynyl-7-fluoro-1-naphthyl)-8-fluoro-pyrido[4,3-d]pyrimidin-2-yl]oxymethyl]-1,2,3,5,6,7-hexahydropyrrolizin-3-yl]methyl 4-[5-[1-(2,6-dioxo-3-piperidyl)-3-methyl-2-oxo-benzimidazol-5-yl]pentoxy]piperidine-1-carboxylate]	< 100
